Key:
[1] = system: WT K. pneumoniae Tim 19 (TEM-1 beta-lactamase); assay type: cell-based, Klebsiella pneumoniae; conditions: for Drug-Resistance Phenotype: WT K. pneumoniae Tim 19, TEM-1; for Resistance or sensitivity of clinical isolate: K. pneumoniae strain Tim 19 containing TEM-1 beta-lactamase
[2] = system: K. pneumoniae Tim 19 CTX^R mutants; test: Multi-drug-resistance phenotype of CTX-selected mutants; assay type: cell-based, Klebsiella pneumoniae; conditions: CTX^R mutants (8 analyzed), MNNG continuous culture, selected with CTX 2-550 μg/ml
[3] = system: E. coli ATCC 11775; assay type: cell-based
[4] = system: E. coli 11775 NA^R mutants; test: Antimicrobial disk-diffusion test (antibiogram) of clones selected on nalidixic acid gradient plates; assay type: cell-based

Question: Which results are given for `C[C@H]1[C@H](NC(=O)/C(=N\OC(C)(C)C(=O)O)c2csc(N)n2)C(=O)N1S(=O)(=O)O` [ATM, aztreonum]?
Answer: Drug-Resistance Phenotype [1]: CTX^S, CAZ^S, FOX^S, ATM^S; Drug-Resistance Phenotype [2]: CTX^R, CAZ^R, FOX^R, ATM^R

Question: How did the “Resistance or sensitivity of clinical isolate” value (“Resistance or sensitivity” for short) [1] turn out when `CC(C)(O/N=C(\C(=O)N[C@@H]1C(=O)N2C(C(=O)[O-])=C(C[n+]3ccccc3)CS[C@H]12)c1csc(N)n1)C(=O)O` [CAZ, ceftazidime] was run?
Answer: The value was “sensitive”.

Question: What about the “Drug-Resistance Phenotype” value [1] of the same compound?
Answer: The value was “CTX^S, CAZ^S, FOX^S, ATM^S”.

Question: What about the “Drug-Resistance Phenotype” value [2] of the same compound?
Answer: Its value is “CTX^R, CAZ^R, FOX^R, ATM^R”.

Question: Which “Resistance or sensitivity” value [1] does the source give for `CO/N=C(\C(=O)N[C@@H]1C(=O)N2C(C(=O)O)=C(COC(C)=O)CS[C@H]12)c1csc(N)n1` [CTX, cefotaxime] here?
Answer: The value was “sensitive”.

Question: And the “Drug-Resistance Phenotype” value [1]?
Answer: Its value is “CTX^S, CAZ^S, FOX^S, ATM^S”.

Question: What about the “Drug-Resistance Phenotype” value [2] of the same compound?
Answer: Its value is “CTX^R, CAZ^R, FOX^R, ATM^R”.

Question: Which “Mutant Frequencies (NA^R phenotype)” value [3] does the source give for `CCOS(C)(=O)=O` [EMS, Ethyl Methanesulfonate] here?
Answer: Its value is 1.2 × 10^−7.

Question: What about the “Survival (%)” value [3] of the same compound?
Answer: The value was 64%.

Question: What does the source list for `CO[C@@]1(NC(=O)Cc2cccs2)C(=O)N2C(C(=O)O)=C(COC(N)=O)CS[C@@H]21` [FOX, cefoxitin]?
Answer: Resistance or sensitivity of clinical isolate [1]: sensitive; Drug-Resistance Phenotype [1]: CTX^S, CAZ^S, FOX^S, ATM^S; Drug-Resistance Phenotype [2]: CTX^R, CAZ^R, FOX^R, ATM^R

Question: `CCn1cc(C(=O)O)c(=O)c2ccc(C)nc21` [NA, nalidixic acid] was tested. Which “Phenotype (nalidixic acid resistance)” value ([4]; mutant D2C2-a, EMS continuous culture, 82 generations, Gly-81→Cys) did it give?
Answer: The value was “Partially NA^R”.

Question: What about the “Phenotype (nalidixic acid resistance)” value ([4]; mutant D2C2-h, EMS continuous culture, 62 generations, Gly-81→Cys) of the same compound?
Answer: Its value is “Partially NA^R”.

Question: What about the “Phenotype (nalidixic acid resistance)” value ([4]; mutant D2C2-l, EMS continuous culture, 62 generations, Gly-82 (GAC)→Asn) of the same compound?
Answer: The value was “Partially NA^R”.

Question: And the “Phenotype (nalidixic acid resistance)” value ([4]; mutant D3NX-E5, EMS continuous culture, 135 generations, Ser-83→Leu)?
Answer: The value was “Completely NA^R”.

Question: What about the “Phenotype (nalidixic acid resistance)” value ([4]; mutant D3NX-E6, EMS continuous culture, 135 generations, Ser-83→Leu) of the same compound?
Answer: Its value is “Completely NA^R”.

Question: And the “Phenotype (nalidixic acid resistance)” value ([4]; mutant D7NX-E1, EMS continuous culture, 403 generations, Ser-83→Leu)?
Answer: Its value is “Completely NA^R”.

Question: And the “Phenotype (nalidixic acid resistance)” value ([4]; mutant D7NX-E2, EMS continuous culture, 403 generations, Ser-83→Leu)?
Answer: The value was “Completely NA^R”.

Question: What about the “Phenotype (nalidixic acid resistance)” value ([4]; mutant NX-E09, EMS, batch culture, gyrA Asp-87→Ile) of the same compound?
Answer: Its value is “Partially NA^R”.

Question: What about the “Phenotype (nalidixic acid resistance)” value ([4]; mutant NX-E10, EMS, batch culture, gyrA Ser-83→Leu) of the same compound?
Answer: Its value is “Completely NA^R”.

Question: And the “Phenotype (nalidixic acid resistance)” value ([4]; mutant NX-M3, MNNG, batch culture, gyrA Asp-87→Gly)?
Answer: Its value is “Partially NA^R”.

Question: What about the “Phenotype (nalidixic acid resistance)” value ([4]; mutant NX-M5, MNNG, batch culture, gyrA Asp-87→Asn) of the same compound?
Answer: Its value is “Partially NA^R”.

Question: What about the “Phenotype (nalidixic acid resistance)” value ([4]; mutant NX-M6, MNNG, batch culture, gyrA Asp-87→Gly) of the same compound?
Answer: Its value is “Partially NA^R”.

Question: And the “Phenotype (nalidixic acid resistance)” value ([4]; mutant NX-N6, NQO, batch culture, gyrA Ser-83→Leu)?
Answer: The value was “Completely NA^R”.

Question: Which results are given for `O=[N+]([O-])c1cc[n+]([O-])c2ccccc12` [NQO, 4Nitroquinoline-lxide]?
Answer: Mutant Frequencies (NA^R phenotype) [3]: 0.6 × 10^−8; Survival (%) [3]: 77%

Question: For `CC1(C)S[C@@H]2[C@H](NC(=O)[C@H](N)c3ccccc3)C(=O)N2[C@H]1C(=O)O` [ampicillin], which “Resistance or sensitivity” value [1] is on record?
Answer: The value was “resistance”.

— patent US6875582B1 (priority 1999, dated 2005)
